Consider 26 molecules from patent publication US11225471B2, “Antidiabetic bicyclic compounds” (Merck Sharp & Dohme Corp., priority 2017, dated 2022).

T1 sequence (O14842 whole entry): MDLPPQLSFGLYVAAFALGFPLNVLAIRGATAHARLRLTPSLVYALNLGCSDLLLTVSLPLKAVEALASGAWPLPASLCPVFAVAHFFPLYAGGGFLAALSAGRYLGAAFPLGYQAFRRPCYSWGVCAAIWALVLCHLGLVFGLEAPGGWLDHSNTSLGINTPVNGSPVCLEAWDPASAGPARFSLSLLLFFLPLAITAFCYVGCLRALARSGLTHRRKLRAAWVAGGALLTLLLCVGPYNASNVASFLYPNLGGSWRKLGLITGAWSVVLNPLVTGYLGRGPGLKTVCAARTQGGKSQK

The assay addresses T1, human GPR40 (Homo sapiens, UniProt O14842).
T1 construct: expressed in transfected cells
The assay can be described thus: Inositol Phosphate Turnover (IP1) Assay. The format is cell-based. As to conditions: HEK cells stably expressing human GPR40; 60 min incubation. How it is done:
Human GPR40 stable cell-lines were generated in HEK cells. The expression plasmids were transfected using lipofectamine (Life Technologies) following manufacturer's instructions. Stable cell-lines were generated following drug selection and single cell cloning. The assay was performed in 384-well format. HEK cells stably expressing human GPR40 were plated at 7500 cells per well in growth medium (DMEM/10% fetal calf serum). Cell plates were then incubated 16 hours at 37 degrees in a 5% CO2 incubator. Measurement of Inositol Phosphate Turnover (IP1) was performed using the CisBio IP-One kit (Part number 62IPAPEB). After the 16 hour incubation, the growth media was removed by centrifugation using the BlueWasher (AusWasher GUI Ver. v1.0.1.8) Protocol #21-“Light Dry” and 10 ul of stimulation buffer (prepared as described in the kit) was added to each well. In a separate plate, compounds were diluted in DMSO (200-fold over the final concentration in the assay well) and 50 nl was acoustically transferred to the appropriate well in the assay cell plate. The plates were then incubated for 60 minutes at 37 degrees in a 5% CO2 incubator. 10 ul of detection buffer (also prepared as described in the IP-One kit) was added to each well and the plates were incubated at room temperature for 60 minutes in the dark. The plates were then read in a Perkin Elmer EnVision or equivalent reader able to measure FRET. Fluorescent ratio of emission at 665 and 620 nm was then converted to IP1 concentration by back calculating from an IP1 standard curve prepared at the time of the assay. Data were normalized to % activity using a reference compound and EC50s determined using a standard 4-parameter fit.
With `CCOc1cc(-c2ncc([C@@H]3CCc4ccc([C@H](C5CC5)[C@H](C)C(=O)O)c(F)c4O3)nc2C)c(F)cn1` [Example 12, (2S,3R)-3-cyclopropyl-3-((S)-2-(5-(2-ethoxy-5-fluoropyridin-4-yl)-6-methylpyrazin-2-yl)-8-fluorochroman-7-yl)-2-methylpropanoic Acid], it took 4.3 nM to reach a half-maximal effect (EC50).
The same measure for `COc1cc(-c2cnc([C@H]3CCc4ccc([C@H](C5CC5)[C@H](C)C(=O)O)cc4O3)c(C)n2)c(Cl)cn1` (single isomer, unassigned) [Example 2]: 1.3 nM.
Under `CCOc1cc(-c2cnc(C3CCc4ccc([C@H](C5CC5)[C@H](C)C(=O)O)cc4O3)c(C)n2)c(F)cn1` (single isomer, unassigned) [Example 9] stands 0.7 nM.
Under `COc1cc(-c2cnc(C3CCc4ccc([C@H](C5CC5)[C@H](C)C(=O)O)cc4O3)c(C)n2)c(C)cn1` (single isomer, unassigned) [Example 25] stands 8.1 nM; under `COc1cc(-c2ncc(C3CCc4ccc([C@H](C5CC5)[C@H](C)C(=O)O)cc4O3)nc2C)c(Cl)cn1` (single isomer, unassigned) [Example 13], 4.1 nM.
As to `COc1cc(-c2cnc([C@@H]3CCc4ccc([C@H](C5CC5)[C@H](C)C(=O)O)cc4O3)c(C)n2)c(Cl)cn1` (single isomer, unassigned) [Example 1], a half-maximal response (EC50) required 0.6 nM.
Under `COc1cc(-c2cnc(C3CCc4ccc([C@H](C5CC5)[C@H](C)C(=O)O)c(F)c4O3)c(C)n2)c(F)cn1` (single isomer, unassigned) [Example 18] stands 4.2 nM; under `CCOc1cc(-c2cnc(C3CCc4ccc([C@H](C5CC5)[C@H](C)C(=O)O)c(F)c4O3)c(C)n2)c(F)cn1` (single isomer, unassigned) [Example 20], 0.4 nM.
`COc1cc(-c2cnc([C@H]3C[C@H](OC)c4ccc([C@H](C5CC5)[C@H](C)C(=O)O)cc4O3)cn2)c(F)cn1` [Example 27, (2S,3R)-3-cyclopropyl-3-{(2R,4S)-2-[5-(5-fluoro-2-methoxypyridin-4-yl)pyrazin-2-yl]-4-methoxy-3,4-dihydro-2H-chromen-7-yl}-2-methylpropanoic Acid] came in with an EC50 of 1.7 nM.
Under `Cc1nc(-c2cc(OCC(F)F)ncc2F)cnc1C1CCc2ccc([C@H](C3CC3)[C@H](C)C(=O)O)cc2O1` (single isomer, unassigned) [Example 8] stands 1 nM; under `CCOc1cc(-c2ncc(C3CCc4ccc([C@H](C5CC5)[C@H](C)C(=O)O)cc4O3)nc2C)c(F)cn1` (single isomer, unassigned) [Example 4], 6.9 nM; under `CCOc1cc(-c2ncc([C@H]3CCc4ccc([C@H](C5CC5)[C@H](C)C(=O)O)c(F)c4O3)nc2C)c(F)cn1` [Example 11, (2S,3R)-3-cyclopropyl-3-((R)-2-(5-(2-ethoxy-5-fluoropyridin-4-yl)-6-methylpyrazin-2-yl)-8-fluorochroman-7-yl)-2-methylpropanoic acid], 3.5 nM.
The same measure for `CCc1nc([C@H]2CCc3ccc([C@H](C4CC4)[C@H](C)C(=O)O)cc3O2)cnc1-c1cc(OC)ncc1F` [Example 23, (2S,3R)-3-cyclopropyl-3-((R)-2-(6-ethyl-5-(5-fluoro-2-methoxypyridin-4-yl)pyrazin-2-yl)chroman-7-yl)-2-methylpropanoic acid]: 6.5 nM; for `COc1cc(-c2cnc(C3CCc4ccc([C@H](C5CC5)[C@H](C)C(=O)O)cc4O3)c(C)n2)c(C2CC2)cn1` (single isomer, unassigned) [Example 26]: 5.4 nM.
Under `COc1cc(-c2ncc(C3CCc4ccc([C@H](C5CC5)[C@H](C)C(=O)O)cc4O3)nc2C)c(Cl)cn1` (single isomer, unassigned) [Example 5] stands 11.2 nM; under `COc1cc(-c2ncc(C3CCc4ccc([C@H](C5CC5)[C@H](C)C(=O)O)cc4O3)nc2C)c(Cl)cn1` (single isomer, unassigned) [Example 6], 3.3 nM; under `COc1cc(-c2cnc(C3CCc4ccc([C@H](C5CC5)[C@H](C)C(=O)O)c(F)c4O3)c(C)n2)c(Cl)cn1` (single isomer, unassigned) [Example 21], 0.3 nM.
In turn, `COc1cc(-c2ncc(C3CCc4ccc([C@H](C5CC5)[C@H](C)C(=O)O)c(F)c4O3)nc2C)c(F)cn1` (single isomer, unassigned) [Example 15] had an EC50 of 3 nM.
The same measure for `CCOc1cc(-c2cnc(C3CCc4ccc([C@H](C5CC5)[C@H](C)C(=O)O)c(F)c4O3)c(C)n2)c(F)cn1` (single isomer, unassigned) [Example 19]: 1.1 nM.
The same measure for `COc1cc(-c2ncc(C3CCc4ccc([C@H](C5CC5)[C@H](C)C(=O)O)c(F)c4O3)nc2C)c(F)cn1` (single isomer, unassigned) [Example 16]: 6.6 nM.
The same measure for `COc1cc(-c2cnc(C3CCc4ccc([C@H](C5CC5)[C@H](C)C(=O)O)c(F)c4O3)c(C)n2)c(Cl)cn1` (single isomer, unassigned) [Example 22]: 1.6 nM; for `COc1cc(-c2cnc(C3CCc4ccc([C@H](C5CC5)[C@H](C)C(=O)O)c(F)c4O3)c(C)n2)c(F)cn1` (single isomer, unassigned) [Example 17]: 0.3 nM.
`CCc1nc([C@@H]2CCc3ccc([C@H](C4CC4)[C@H](C)C(=O)O)cc3O2)cnc1-c1cc(OC)ncc1F` [Example 24, (2S,3R)-3-cyclopropyl-3-((S)-2-(6-ethyl-5-(5-fluoro-2-methoxypyridin-4-yl)pyrazin-2-yl)chroman-7-yl)-2-methylpropanoic Acid] registered an EC50 of 2.3 nM.
Under `Cc1nc(-c2cc(OCC(F)F)ncc2F)cnc1C1CCc2ccc([C@H](C3CC3)[C@H](C)C(=O)O)cc2O1` (single isomer, unassigned) [Example 7] stands 0.9 nM; under `CCOc1cc(-c2ncc(C3CCc4ccc([C@H](C5CC5)[C@H](C)C(=O)O)cc4O3)nc2C)c(F)cn1` (single isomer, unassigned) [Example 3], 7.8 nM; under `COc1cc(-c2ncc(C3CCc4ccc([C@H](C5CC5)[C@H](C)C(=O)O)cc4O3)nc2C)c(Cl)cn1` (single isomer, unassigned) [Example 14], 13.8 nM.
